Test results published in patent US20220388969A1, “SUBSTITUTED 3,4-DIHYDROQ[…] THE TREATMENT AND PROPHYLAXIS OF HEPATITIS B VIRUS INFECTION” (priority 2019, published 2022).
pIC50: −log10 of the molar value.

Key:
[1] = tested on: HBeAg level in HepDES19 cells (surrogate marker for HBV cccDNA); assay: Engineered HepDES19 primary screen assay (HBeAg as surrogate marker for cccDNA); type: cell-based; settings: Hepatitis B virus, 120 h; HepDES19 cells, 5 days incubation with compound, HBeAg ELISA; read-out: IC50 (HBeAg level, HepDES19 primary screen assay)
Text: The assay was employed to screen for novel cccDNA inhibitors. HepDES19 is a cccDNA-producing cell line. In this cell line, HBeAg in the cell culture supernatant as surrogate marker, as HBeAg production depends on cccDNA level and activity. HepDES19 is an engineered cell line which contains a 1.1 unit length HBV genome, and pgRNA transcription from the transgene is controlled by Tetracycline (Tet). In the absence of Tet, pgRNA transcription will be induced, but HBV e antigen (HBeAg) could not be produced from this pgRNA due to very short leader sequence before the HBeAg start codon and the start codon is disrupted. Only after cccDNA is formed, the missing leader sequence and start codon mutation would be restored from the 3′-terminal redundancy of pgRNA, and then HBeAg could be synthesized. Therefore, HBeAg could be used as a surrogate marker for cccDNA (Zhou, T. et al., Antiviral Res.(2006), 72(2), 116-124; Guo, H. et al., J. Virol. (2007), 81(22), 12472-12484).
HepDES19 cells were seeded at 2×10^6 cells per T150 flask and cultured with the culture medium (Dulbecco's Modified Eagle Medium: Nutrient Mixture F-12 [DMEM-F12, Gibco Cat. 11320-82], 10% Fetal Bovine Serum [FBS, Clontech Cat. 631101], 0.1 mM Non-Essential Amino Acids Solution [NEAA, Gibco Cat. 11140-050], 50 μg/mL Penicillin-Streptomycin [PS, Invitrogen Cat. 15140-163], 500 μg/mL Geneticin [G418, Invitrogen Cat. 10131-027]) containing 3 μg/mL Tet (Sigma, Cat. 87128) for 5 days. Cells were then seeded at 4×10^6 cells per T150 in the same culture medium as described above in the absence of Tet for 8 days. Cells were then harvested and frozen at density of 2×10^6 cells per mL. For compound testing, the frozen cells were thawed and seeded into 96-well plates at a density of 6 ×10^4 cells per well. At 24hours after seeding, half log serial dilutions of compounds made with Dimethyl sulfoxide (DMSO, Sigma, Cat. D2650) were further diluted with the same culture medium as described above before they were added to the cells to reach desired final compound concentrations and 1% DMSO concentration. Plates were then incubated at 37° C. for another 5 days before measurement of HBeAg level and cell viability. Intracellular HBeAg level were measured with enzyme-linked immunosorbent assay (ELISA) kit (Shanghai Kehua Diagnostic Medical Products Co., Ltd). Cell viability was assessed using Cell Counting Kit-8 (DonJindo, Cat. CK04-20). IC50 values were derived from the dose-response curve using 4 parameter logistic curve fit method.
The compounds of the present invention were tested for their capacity to inhibit extracellular HBeAg level as described herein.

[2] = tested on: HBsAg in HBV-infected primary human hepatocytes; assay: Cryopreserved primary human hepatocytes (PHH) HBV infection assay, extracellular HBsAg; type: cell-based; settings: Hepatitis B virus, Hepatocyte, 216 h, read-out: HBsAg IC50
Description: This assay is used to confirm the anti-HBV effect of the compounds in HBV PHH infection assay. Cryopreserved PHH (BioreclamationlVT, Lot YJM) was thawed at 37° C. and gently transferred into pre-warmed InVitroGRO HT medium (BioreclamationIVT, Cat. S03317). The mixture was centrifuged at 70 relative centrifugal force (RCF) for 3 minutes at RT, and the supernatant was discarded. Pre-warmed InVitroGRO CP medium (BioreclamationlVT, Cat# S03316) was added to the cell pellet to gently re-suspend cells. The cells were seeded at the density of 5.8×10^4 cells per well to collagen I coated 96-well plate (Gibco, Cat. A1142803) with the InVitroGRO CP medium. All plates were incubated at 37° C. with 5% CO2 and 85% humidity.
At 20 hours after plating, the medium was changed to PHH culture medium (Dulbecco's Modified Eagle Medium (DMEM)/F12 (1:1) (Gibco, Cat. 11320-033), 10% fetal bovine serum (Gibco Cat. 10099141), 100 U/mL penicillin, 100 μg/mL streptomycin (Gibco, Cat. 151401-122), 5 ng/mL human epidermal growth factor (Invitrogen Cat. PHG0311L), 20 ng/mL dexamethasone (Sigma, Cat. D4902) and 250 ng/mL human recombinant insulin (Gibco, Cat. 12585-014)). And the cells were incubated at 37° C. with 5% CO2 and 85% humidity for 4 hours. The medium was then changed to pre-warmed PHH culture medium containing 4% polyethylene glycol (PEG) MW8000 (Sigma, Cat. P1458-50ML) and 1% DMSO (Sigma, Cat. D2650). 5.8×10^6 genomic equivalents of HBV were added into the medium.
At 24 hours post-infection, the cells were gently washed with PBS and refreshed with PHH culture medium supplemented with 1% DMSO, and 0.25 mg/mL Matrix gel (Corning, Cat. 356237) at 200 μL per well. All plates were immediately placed in at 37° C. CO2 incubator.
24 hours later, serial dilutions of compounds made with DMSO were further diluted with the same culture medium (PHH culture medium supplemented with 1% DMSO and 0.25 mg/mL Matrix gel as described above) before they were added to the cells to reach desired final compound concentrations and 1% DMSO concentration. The medium containing the compounds were refreshed every three days.
At 9 days post-compound treatment, extracellular HBsAg level were measured with Chemiluminescence Immuno Assay (CLIA) kit (Autobio, HBsAg Quantitative CLIA).
HBsAg IC50 values were derived from the dose-response curve using 4 parameter logistic curve fit method. The compounds of formula (I) have HBsAg IC50<20 μM, particularly <1 μM.

Work on `O=C(O)C1NC(c2ccccc2)=Nc2c(Cl)cccc21` (stereo not shown) [Example 2, 8-chloro-2-phenyl-3,4-dihydroquinazoline-4-carboxylic Acid] yielded a pIC50 [1] of 5.52 and a pIC50 [2] of 6.38.

For `COC(=O)c1ccc(-c2csc(C3=Nc4c(Cl)cccc4C(C)N3)n2)cc1` (stereo not shown) [Example 32, methyl 4-[2-(8-chloro-4-methyl-3,4-dihydroquinazolin-2-yl)thiazol-4-yl]benzoate], the pIC50 [1] was 6.07 and the pIC50 [2] was 7.62.

Molecule `O=C(O)C1NC(c2ccc(Br)cc2)=Nc2c(Cl)cccc21` (stereo not shown) [Example 1, 2-(4-bromophenyl)-8-chloro-3,4-dihydroquinazoline-4-carboxylic Acid] has a pIC50 [1] of 5.25 and a pIC50 [2] of 5.51.

In the case of `Cc1cc(C2=Nc3c(Cl)cccc3C(C(=O)O)N2)ccc1Br` (stereo not shown) [Example 5, 2-(4-bromo-3-methyl-phenyl)-8-chloro-3,4-dihydroquinazoline-4-carboxylic Acid], the pIC50 [1] was 6.25 and the pIC50 [2] was 5.36.

Work on `NC(=O)C1NC(c2ccc(Br)cc2)=Nc2c(Cl)cccc21` (stereo not shown) [Example 13, 2-(4-bromophenyl)-8-chloro-3,4-dihydroquinazoline-4-carboxamide] yielded a pIC50 [1] of 7.15 and a pIC50 [2] of 5.55.

Work on `Cc1cc(OCCOC2CC(C(=O)O)C2)ccc1C1=Nc2c(Cl)cccc2C(C)N1` (stereo not shown) [Example 22, 3-[2-[4-(8-chloro-4-methyl-3,4-dihydroquinazolin-2-yl)-3-methyl-phenoxy]ethoxy]cyclobutanecarboxylic Acid] yielded a pIC50 [1] of 5.07 and a pIC50 [2] of 6.17.

Work on `COC(=O)C1NC(c2ccc(Br)cc2)=Nc2c(Cl)cccc21` (stereo not shown) [Example 12, methyl 2-(4-bromophenyl)-8-chloro-3,4-dihydroquinazoline-4-carboxylate] yielded a pIC50 [1] of 6.48 and a pIC50 [2] of 5.87.

With `COc1ccc(C2=Nc3c(Cl)cccc3C(C(=O)O)N2)cc1` (stereo not shown) [Example 4, 8-chloro-2-(4-methoxyphenyl)-3,4-dihydroquinazoline-4-carboxylic Acid] the pIC50 [1] was 6.06 and the pIC50 [2] was 5.71.

Molecule `COc1ccc(C2=Nc3c(Cl)cccc3C(C(=O)NCCO)N2)cc1` (stereo not shown) [Example 16, 8-chloro-N-(2-hydroxyethyl)-2-(4-methoxyphenyl)-3,4-dihydroquinazoline-4-carboxamide] has a pIC50 [1] of 5.69 and a pIC50 [2] of 5.34.

`O=C(O)C1NC(c2ccc(Cl)cc2)=Nc2c(Cl)cccc21` (stereo not shown) [Example 3, 8-chloro-2-(4-chlorophenyl)-3,4-dihydroquinazoline-4-carboxylic Acid] gave a pIC50 [1] of 4.99 and a pIC50 [2] of 5.82.

Molecule `CC1NC(c2ccc(OCCOC3CC(C(=O)O)C3)cc2)=Nc2cc(C(F)(F)F)ccc21` (stereo not shown) [Example 19, 3-[2-[4-[4-methyl-7-(trifluoromethyl)-3,4-dihydroquinazolin-2-yl]phenoxy]ethoxy]cyclobutanecarboxylic Acid] has a pIC50 [1] of 5.36 and a pIC50 [2] of 5.12.

With `CC(C)C1NC(c2ccc(Br)cc2)=Nc2c(Cl)cccc21` (stereo not shown) [Example 36, 2-(4-bromophenyl)-8-chloro-4-isopropyl-3,4-dihydroquinazoline] the pIC50 [1] was 5.19 and the pIC50 [2] was 7.38.

In the case of `O=C(O)C1NC(c2ccc(Br)cc2)=Nc2cc(C(F)(F)F)ccc21` (stereo not shown) [Example 7, 2-(4-bromophenyl)-7-(trifluoromethyl)-3,4-dihydroquinazoline-4-carboxylic Acid], the pIC50 [1] was 5.52 and the pIC50 [2] was 5.64.

For `O=C(O)C1NC(c2cccc(Br)c2)=Nc2cc(C(F)(F)F)ccc21` (stereo not shown) [Example 6, 2-(3-bromophenyl)-7-(trifluoromethyl)-3,4-dihydroquinazoline-4-carboxylic Acid], the pIC50 [1] was 5.46 and the pIC50 [2] was 5.14.
